Measurements from a melting point compilation (Tetko et al.; mined from patent text by program, amines drawn as free bases though some values may be those of a salt).
Non-standard residues stand in square brackets, D forms with d. Residues, ends and D or L forms follow the SMILES beside them. ξ: configuration not given here. *: point of attachment. Boc = CC(C)(C)OC(=O)*; ξA = CC(N)C(=O)O; NHNH2 = NN*

SMILES | melting point [°C]
Cc1cccc2cc3c(=O)n(CCOC(=O)NCCN(C)C)cc(C(=O)NCCN(C)C)c3nc12 | 75 to 76
CSc1[nH]n(-c2c(Cl)cc(Cl)cc2Cl)c2nc(Cc3cccc(O)c3)nc(=O)c1-2 | 264 to 266
Cc1oc(-c2ccccc2)nc1C(=O)COc1ccc(CCC2OCCO2)cc1 | 119 to 120
CC(Cl)C(=O)c1ncc(Cl)cc1F (stereo unspecified) | 29 to 32
COC(=O)c1cc(I)c(O)c(C(C)(C)C)c1 | 67
CC(=O)c1ccc(N2CCN(CCC(=O)O)CC2)cc1 | 204 to 206
Nc1ncccc1C(=O)NCC1CCN(CC2COc3ccccc3O2)CC1 (stereo unspecified) | 104 to 106
COc1ccc2ncnc(N3CCc4ccc(Cl)cc43)c2c1 | 243
COc1cccn(C2c3cc(S(=O)(=O)C(F)(F)F)ccc3OC(C)(C)C2O)c1=O (stereo unspecified) | 223 to 225
CCc1nn(-c2ccc3cc(-c4ccc(-n5cnnc5)cc4)c(=O)oc3c2)nc1C | 321 to 323
COc1cc(OC)c([N+](=O)[O-])c(OC)c1NC=O | 98
CN(C)CCNNc1ccc(CO)c2oc3ccc(O)cc3c(=O)c12 | 122 to 123
CCCN1NCc2c(C3C(=O)Nc4ccc(C(F)(F)F)cc43)ncnc21 (stereo unspecified) | 293 to 295
CN1CCc2cc(-c3ccc4c(c3)CCN(CCN3CCCC3)C4=O)ccc2C1=O | 225 to 226
N#Cc1cccc(-c2cnc3cnc(-c4ccc(O)cc4)nc3c2)c1 | > 268
CC1(C)CCC(C)(C)c2cc(N(CCCCO)C(=O)Nc3cccc(C(=O)O)c3)ccc21 | 124 to 125
CC(=O)OC(C)(C)C(=O)Nc1c(C(=O)c2ccccc2)[nH]c2cc(Cl)ccc12 | 162 to 165
Nc1ccccc1C(=O)NCCN1CCC2(CC1)C(=O)NCN2c1ccc(F)cc1 | 195
NCCOc1ccc(C(=C(c2ccc(F)cc2)C(F)(F)F)c2ccccc2)cc1 | 83 to 89
CCCNC(=S)c1ccc2c(c1)N(C(C)CN1CCCC1)c1ccccc1S2 (racemic) | 150 to 152
CN(C)c1ccc(C=Cc2ccc(S(=O)(=O)CCCCCCCCCCCO)cc2)cc1 | 153 to 155
COc1nccnc1C1=CN2CCC1CC2 | 95 to 96
O=C1CCC(N2Cc3c(OCc4ccc5ncc(CN6CCOCC6)n5c4)cccc3C2=O)C(=O)N1 (stereo unspecified) | 170 to 172
CCOC(=O)C(C)c1ccc2nc(N)sc2c1 (stereo unspecified) | 146

SMILES | melting point [°C]
CC(C)c1cc(C(C)C)c(CC(=O)O)c(-c2ccc(F)cc2)c1CO | 124 to 126
CCOC(=O)c1ccc2c(O)c(C(=O)OCC)c(=O)n(C)c2n1 | 174 to 175
COC1(OC)CCC2=C(CC(C)C3C2CCC2(C)CCCC32)C1 (stereo unspecified) | 57
N#Cc1cc(N2C(=O)C3=C(CCCC3)C2=O)c(F)cc1Cl | 160 to 162
BrCc1cccc2c(-c3ccc(Br)cc3)onc12 | 159 to 161
CCOP(=O)(OCC)C(C)Oc1cc(-n2c(=O)cc(C(F)(F)F)n(C)c2=O)c(F)cc1Cl (stereo unspecified) | 103
CC(C)(C)[C@H]1CC[C@H](CCC(=O)N2C(=O)OC[C@@H]2Cc2ccccc2)CC1 | 132 to 135
COc1ccc(C(=O)Nc2ccc(F)cc2)cc1NCc1cccs1 | 179 to 181
CC(NC(=O)CNC(=O)CNC(=O)CNC(=O)OC(C)(C)C)C(=O)NCC(=O)NN (stereo unspecified) (Boc-GGG[ξA]G-NHNH2) | 221 to 223
CCCNC1=CC(=O)c2c(OC)ccc(OC)c2C1=O | 175 to 176
NCC(CC(=O)O)c1ccc(Cl)c(Cl)c1 (stereo unspecified) | 202 to 204
CSc1nc(=O)n(-c2ccccc2F)c(=O)[nH]1 | 196 to 199
O=c1[nH]c2ccc(S(=O)CCN3CCC(Cc4ccc(Cl)c(Cl)c4)CC3)cc2o1 (stereo unspecified) | 189 to 191
C=C1c2ccccc2CC12CCC(N1CCCCC1)CC2 (stereo unspecified) | 93 to 95
COC(=O)CCCc1cc2nc(C(F)(F)F)ccc2n1S(=O)(=O)c1ccccc1Cl | 88
CCONCCCC=C1C(=O)CC(c2ccc(Cl)cc2)CC1=O (stereo unspecified) | 77
O=C(O)C1(c2ccco2)CC1 | 113 to 114
COc1ccc(C(=O)O)cc1C#CCN(C)C | 167 to 170
COc1cc(COc2cc(/C=C/c3ccccn3)n(-c3ccccc3)n2)ccc1OCc1nc(-c2ccco2)oc1C | 122 to 123
Cc1ccc(C2OCC(C)(CO)CO2)cc1 (stereo unspecified) | 104 to 106
O=c1[nH]c(=O)n(C2CC(OCc3ccccc3Cl)C(CO)O2)cc1F (stereo unspecified) | 78 to 80
COC(=O)C1(Sc2cc(N=c3sc(=O)n4n3CCCC4)c(F)cc2Cl)CC1 | 149
CCCCCCCCCCCCCCCCCCNC(=O)OCC1(CO)CCCO1 (stereo unspecified) | 57 to 58
CCCS(=O)(=O)c1cc([C@H]2C[C@H](c3cc(OC)c(OC)c(OC)c3)CO2)cc(OC)c1OCc1ccccc1 (relative stereo) | 176 to 177

SMILES | melting point [°C]
Cc1cc2c(cc1O)C(C)(C)CC1(CC(C)(C)c3cc(OCCO)c(C)cc3O1)O2 (stereo unspecified) | 186 to 188
CCOC(=O)c1cc2c(cn1)[nH]c1cccc(Oc3ccc([N+](=O)[O-])cn3)c12 | 298 to 300
O=C(O)CSCCCCCCn1nc(-c2ccccc2)c(-c2ccccc2)c1-c1ccccc1 | 92 to 97
COc1ccc(-c2cc(C#N)c[nH]2)c(OC)c1 | 129 to 130
CN1CCN(CCc2nc3cc(Br)c4ccccc4c3n2C)CC1 | 151 to 157
Cc1c(C(=O)Nc2ccc(N3CCN(CCO)CC3)c(C#N)c2)cnn1-c1cccc(Cl)c1 | 176 to 177
Cc1ccc(Sc2c(-c3ccc(S(C)(=O)=O)cc3)cnn(-c3cccc(Cl)c3)c2=O)cc1 | 178
Cc1cc(-c2ccc(C#N)cc2)sc1C(=O)O | 248 to 253
O=C(OCCN1CCN(c2ccc(Cl)cc2)CC1)c1sccc1Nc1ccnc2c(C(F)(F)F)cccc12 | 155
COc1cc(C)nc(NC(=O)NS(=O)(=O)c2ccc(N=[N+]=[N-])cc2)n1 | 192
Cc1cc(C=O)ccc1-c1ccc(O)cc1 | 94 to 96
C=CC1CC2=CC(=O)CCC2C2CCC3(CC)C(O)CCC3C12 (stereo unspecified) | 155 to 156
Nc1ccc(C(c2ccc(N)c(N)c2)(C(F)(F)F)C(F)(F)F)cc1N | 218 to 220
CCCCOC(=O)c1cc(Oc2ccc3c(C(=O)Nc4cccc(C(F)(F)F)c4)cccc3c2)ccn1 | 128 to 130
COc1ccc(S(N)(=O)=O)cc1C(=O)NCC1CCCN1C1CC1 (stereo unspecified) | 163
CC(C)(C)c1ccc(O)c(C2=CCCCC2)c1 | 90 to 93
O=C1Cc2cccc(C(=O)c3ccccc3F)c2N1 | 209 to 210
C=CCNC(=O)N1CC(Oc2ccccn2)C1 | 72 to 76
CCCCCCCCCCCCOCC(CO)(CO)COCCCCCCCCCCCC | 54 to 55
COc1cc(-c2cc(C3CCOCC3)no2)cc2oc(=O)c(C)c(C)c12 | 151
CCN(CC)CC(=O)Nc1cccc(-c2cc(-c3ccc(F)cc3OCOC)nc(NC(=O)c3ccco3)c2C#N)c1 | 126 to 128
CCc1cc(-c2ccc(Cl)cc2)nc2c(I)cnn12 | 150 to 152
CS(=O)c1ccc(CCCCl)cc1 (stereo unspecified) | 46
